# Experiments:
# [1] = system: HLA class I alleles (A3, B7, Cw7); test: HLA restriction by 51chromium-release assay with partially HLA class I matched BCL; conditions: restricting HLA class I allele of the optimal CTL epitope, subject AC-06
# [2] = system: PBMC (HIV-1-specific CD8+ T cells) of subject AC-06; test: IFN-γ Elispot assay of HIV-1-specific CD8+ T cell responses in subject AC-06; format: cell-based, human
sequence,measurement,setting,value
RRQDILDLWIY [Cw7-RY11],HLA-restriction,[1],Cw7
same,magnitude of HIV-1-specific CD8+ T cell responses at the single epitope level,"[2]; subject AC-06, 0 months after infection",0 SFC/Million PBMC
same,magnitude of HIV-1-specific CD8+ T cell responses at the single epitope level,"[2]; subject AC-06, 2 months after infection",0 SFC/Million PBMC
same,magnitude of HIV-1-specific CD8+ T cell responses at the single epitope level,"[2]; subject AC-06, 6 months after infection",0 SFC/Million PBMC
same,magnitude of HIV-1-specific CD8+ T cell responses at the single epitope level,"[2]; subject AC-06, 12 months after infection",0 SFC/Million PBMC
same,magnitude of HIV-1-specific CD8+ T cell responses at the single epitope level,"[2]; subject AC-06, 18 months after infection",0 SFC/Million PBMC
same,magnitude of HIV-1-specific CD8+ T cell responses at the single epitope level,"[2]; subject AC-06, 20 months after infection",0 SFC/Million PBMC
same,magnitude of HIV-1-specific CD8+ T cell responses at the single epitope level,"[2]; subject AC-06, 24 months after infection",0 SFC/Million PBMC
same,magnitude of HIV-1-specific CD8+ T cell responses at the single epitope level,"[2]; subject AC-06, 29.5 months after infection",720 SFC/Million PBMC
same,magnitude of HIV-1-specific CD8+ T cell responses at the single epitope level,"[2]; subject AC-06, 34 months after infection",1000 SFC/Million PBMC

# Reference: patent US20040001845A1, “Cytotoxic T-cell epitopes of HIV-1 virus” (priority 2002, published 2004)
